The record followed here is article PMC9495829, “Quercetin Is a Novel Inhibitor of the Choline Kinase of Streptococcus pneumoniae” (Antibiotics, 2022).

The target in the assay is T1, choline kinase of Streptococcus pneumoniae (sChoK) (Streptococcus pneumoniae, UniProt Q8DPI4).
T1 construct: gene pck
Put plainly: colorimetric choline kinase assay (IC50); PK/LDH kinetics on purified recombinant sChoK (Ki […] +/- […], unit inferred). It is filed as biochemical.

T1 sequence (Q8DPI4 entry or part of it): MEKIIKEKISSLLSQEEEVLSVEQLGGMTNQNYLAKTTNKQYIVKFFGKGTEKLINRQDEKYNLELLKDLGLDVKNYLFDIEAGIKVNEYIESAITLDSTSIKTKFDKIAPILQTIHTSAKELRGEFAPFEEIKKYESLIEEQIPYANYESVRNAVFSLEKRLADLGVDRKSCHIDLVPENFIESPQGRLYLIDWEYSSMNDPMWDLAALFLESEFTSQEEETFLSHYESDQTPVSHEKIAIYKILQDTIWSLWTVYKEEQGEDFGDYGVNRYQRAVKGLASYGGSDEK

The term IC50 denotes the concentration at which inhibition is half-maximal. As for `O=c1c(O)c(-c2ccc(O)c(O)c2)oc2cc(O)cc(O)c12` [quercetin], the IC50 came to 6.18 µM.
